{
  "source": "patent US20210059959A1",
  "about": "“USE OF CANNABINOIDS IN THE TREATMENT OF MENTAL DISORDERS” (GW Pharma Limited, priority 2015, published 2021)",
  "key": {"[1]": {"tested_on": "participants with schizophrenia or related psychotic disorder", "test": "Brief Assessment of Cognition in Schizophrenia (BACS), double-blind placebo-controlled study of CBD as adjunctive therapy", "format": "in vivo, human", "conditions": "all patients", "method": "Example 1 below describes the use of a highly purified cannabis extract comprising cannabidiol (CBD) in a human clinical trial. Example 1 describes data produced in a double-blind, randomised, placebo-controlled, parallel group study of highly purified CBD as adjunctive therapy in first line treatment of schizophrenia or related psychotic disorder.\nAn eight-week, multi-centre, double-blind, randomised, placebo-controlled, parallel group study was conducted with the aim to determine the efficacy, safety and tolerability of highly purified CBD as adjunctive therapy in first line treatment of schizophrenia or related psychotic disorder.\nThis study evaluated the efficacy of highly purified CBD compared with placebo on the participant's PANSS Total score, ‘P’, ‘N’, ‘G’, SANS and BACS scores.\nChanges from baseline in PANSS scores (Total, ‘P’, ‘N’ and ‘G’), SANS and BACS were recorded at the start of the study (baseline) and at the end of treatment (after 6 weeks treatment with CBD or placebo).\nFor inclusion in the study participants were required to be male or female aged 18 to 65 years, diagnosed with schizophrenia or a related psychotic disorder (such as schizoaffective or schizophreniform disorder) as defined by the Diagnostic and Statistical Manual of Mental Disorders Version 4. Participants must have been treated for a minimum of four-weeks and be on a stable dose of their current antipsychotic medication. […] A PANSS score in excess of 60 infers that the patient has symptoms related to schizophrenia or related disorders.\nThe participants were randomised to one of two treatment groups which each consisted of 39 participants. Treatment was administered as either 5 ml CBD (100 mg/ml) oral solution to be taken twice daily or 5 ml matched placebo oral solution to be taken twice daily.\nBrief Assessment of Cognition in Schizophrenia (BACS)\nThe BACS is an instrument used to assess the aspects of cognition found to be most impaired and most strongly correlated with outcome in participants with schizophrenia or related psychotic disorder. The BACS yields a high completion rate in participants with schizophrenia or related psychotic disorder.\nThe BACS consists of six domains: verbal memory; working memory; motor speed; verbal fluency; attention and speed information processing and executive functions. A score is obtained for each domain and a composite summary score is also calculated as the average of the scores from the six domains. An increase in score is indicative of an improvement in cognition.\nThis instrument was assessed at each assessment visit (Visits 1-4)."}, "[2]": {"tested_on": "patients with bipolar affective disorder", "conditions": "two female patients, 30 days; one with olanzapine as adjunct, one CBD monotherapy; cited from earlier work"}, "rats treated with MK-801": {"tested_on": "rats treated with MK-801", "conditions": "cited from earlier work"}},
  "data": [
    {"smiles": "C=C(C)[C@@H]1CCC(C)=C[C@H]1c1c(O)cc(CCCCC)cc1O", "note": "[CBD, Cannabidiol]", "values": [
      {"measurement": "Change in baseline scores, BACS composite score", "setting": "[1]; CBD adjunct, 6 weeks", "value": 3.5},
      {"measurement": "Change in baseline scores, BACS sub-domain 1 Verbal memory", "setting": "[1]; CBD adjunct, 6 weeks", "value": 2.1},
      {"measurement": "Change in baseline scores, BACS sub-domain 2 Working memory", "setting": "[1]; CBD adjunct, 6 weeks", "value": 1.8},
      {"measurement": "Change in baseline scores, BACS sub-domain 3 Motor speed", "setting": "[1]; CBD adjunct, 6 weeks", "value": 6.2},
      {"measurement": "Change in baseline scores, BACS sub-domain 4 Verbal fluency", "setting": "[1]; CBD adjunct, 6 weeks", "value": 4.3},
      {"measurement": "Change in baseline scores, BACS sub-domain 5 Attention and speed information processing", "setting": "[1]; CBD adjunct, 6 weeks", "value": 4.4},
      {"measurement": "Change in baseline scores, BACS sub-domain 6 Executive function", "setting": "[1]; CBD adjunct, 6 weeks", "value": 2.0},
      {"measurement": "Change in baseline scores, BACS sub-domain 3 Motor speed: difference", "setting": "[1]; CBD vs placebo, P = 0.0439", "value": "(4.2)"},
      {"measurement": "Change in baseline scores, BACS composite score: difference", "setting": "[1]; CBD vs placebo, P = 0.0677", "value": "(1.3)"},
      {"measurement": "Change in baseline scores, BACS sub-domain 6 Executive function: difference", "setting": "[1]; CBD vs placebo, P = 0.0682", "value": "(1.4)"},
      {"measurement": "Change in baseline scores, BACS sub-domain 2 Working memory: difference", "setting": "[1]; CBD vs placebo, P = 0.1414", "value": "(1.0)"},
      {"measurement": "Change in baseline scores, BACS sub-domain 5 Attention and speed information processing: difference", "setting": "[1]; CBD vs placebo, P = 0.5915", "value": "(0.9)"},
      {"measurement": "Change in baseline scores, BACS sub-domain 4 Verbal fluency: difference", "setting": "[1]; CBD vs placebo, P = 0.8059", "value": "(0.4)"},
      {"measurement": "Change in baseline scores, BACS sub-domain 1 Verbal memory: difference", "setting": "[1]; CBD vs placebo, P = 0.9933", "value": "(0.1)"},
      {"measurement": "Efficacy in bipolar affective disorder", "setting": "[2]", "value": "ineffective"},
      {"measurement": "Effect on social deficits", "setting": "rats treated with MK-801", "value": "reverse social deficits"}
    ]}
  ]
}
